Test results from patent US20230241073A1, “PHARMACEUTICAL COMPOSITION FOR PREVENTING OR TREATING NON-SMALL CELL LUNG CANCER ASSOCIATED WITH RON MUTANTATION, AND METHOD USING SAME” (WELLMARKER BIO CO., LTD., priority 2020, published 2023).
pIC50: −log10 of the molar value. Where a name gives a salt, the structure may show the parent alone.

Legend:
[1] = system: Calu-6 non-small cell lung cancer cell line of a mutation RONΔ155 type; experiment: MTS assay, cell growth inhibitory ability, Calu-6; assay type: cell-based; details: Homo sapiens; Calu-6, RON mutation Δ155, 72 hours
Protocol: (§1) In order to compare and confirm the cell growth inhibitory ability of Examples 1 (WM-S1-030) to 5, positive control 1 (BMS-777607) and positive control 2 (AMG-510) in four non-small cell lung cancer cell lines of a mutation RONΔ155 type (Calu-6, A549, NCI-H358, NCI-H1944), MTS assay was carried out.
(§2) For MTS assay, 1,000 cells of each non-small cell lung cancer cell line per well were seeded in a 96-well-plate, and 24 hours later, treated with the compounds of Examples 1 to 5, positive control 1 and positive control 2 at various concentrations ([…]) in 100 μL of 10% FBS-RPMI medium (Welgene) per each well. Thereafter, the cells were cultured for 72 hours, and then 20 μL of MTS solution (Promega) was added and cultured for 2 hours, and then absorbance was measured at 490 nm. The cytotoxicity was analyzed by deriving the IC50 for the compounds of Examples 1 to 5, positive control 1 and positive control 2 using GraphPad Prism™ 5.

[2] = system: NCI-H1944 non-small cell lung cancer cell line of a mutation RONΔ155 type; experiment: MTS assay, cell growth inhibitory ability, NCI-H1944; assay type: cell-based; details: Homo sapiens; NCI-H1944, RON mutation Δ155, 72 hours
Protocol: as §1, §2

[3] = system: NCI-H460 (mRONΔ165) non-small cell lung cancer cell line transplanted mouse model; experiment: Tumor growth inhibition in NCI-H460 transplanted animal model; assay type: in vivo; details: NCI-H460 xenograft, 50 mg/kg, once a day for 2 weeks
Protocol: It was confirmed whether tumor growth was inhibited by administering Example 1 (WM-S1-030) at a dose of 50 mpk to a mouse model transplanted with NCI-H460, which is a non-small cell lung cancer cell line of a mutation RONΔ165 type. Specifically, 5-week-old female BALB/c-nude mice were purchased and acclimatized for 1 week. Thereafter, NCI-H460 (2×10^6 cells/mouse), a non-small cell lung cancer cell line of a mutation RONΔ165 type, was diluted in PBS and Matrigel, and 200 μL was injected subcutaneously into the right dorsal side of the mouse. When the size of the tumor reached about 100 mm^3, the negative control (excipient) and Example 1 were orally administered. In this case, positive control 1 (BMS-777607) was administered at a dose of 50 mpk. The drug was administered once a day for 2 weeks, and the tumor size and body weight were measured twice a week. After the drug administration was completed, the mice were euthanized, the tumor was extracted, and the weight was measured.

[4] = system: NCI-H358 non-small cell lung cancer cell line of a mutation RONΔ155 type; experiment: MTS assay, cell growth inhibitory ability, NCI-H358; assay type: cell-based; details: Homo sapiens; NCI-H358, RON mutation Δ155, 72 hours
Protocol: as §1, §2

[5] = system: A549 (mRONΔ155) non-small cell lung cancer cell line transplanted mouse model; experiment: Tumor growth inhibition in A549 transplanted animal model; assay type: in vivo; details: A549 xenograft, 50 mg/kg, orally once a day for 3 weeks
Protocol: (§3) It was confirmed whether tumor growth was inhibited by administering Example 1 (WM-S1-030) at a dose of 50 mpk to a mouse model transplanted with A549, which is a non-small cell lung cancer cell line of a mutation RONΔ155 type. Specifically, 5-week-old female BALB/c-nude mice were purchased and acclimatized for 1 week. Thereafter, A549 (5×10^6 cells/mouse), a non-small cell lung cancer cell line of a mutation RONΔ155 type, was diluted in PBS (phosphate buffered saline), and 100 μL was injected subcutaneously into the right dorsal side of the mouse. When the size of the tumor reached about 100 mm^3, the negative control (excipient) and Example 1 were orally administered. The drug was administered once a day for 3 weeks, and the tumor size and body weight were measured twice a week. After the drug administration was completed, the mice were euthanized, the tumor was extracted, and the weight was measured.

[6] = system: NCI-H358 (mRONΔ155) non-small cell lung cancer cell line transplanted mouse model; experiment: Tumor growth inhibition in NCI-H358 transplanted animal model; assay type: in vivo; details: NCI-H358 xenograft, orally once a day for 38 days
Protocol: as §3, with “of 3 mpk, 10 mpk and 30” for “of 50”, “with NCI-H358,” for “with A549,”, “Thereafter, NCI-H358” for “Thereafter, A549”, “PBS” for “PBS (phosphate buffered saline),”, “and Matrigel, and 200” for “and 100”, “for 38 days,” for “for 3 weeks,”

[7] = system: pTyr-mRON, cleaved caspase 3, cyclin D1 in NCI-H460 (mRONΔ165) tumor; experiment: Protein expression change by immunochemical staining of tumor tissue, NCI-H460 transplanted animal model; assay type: in vivo, mouse; details: 30 mpk, 50 mpk, FIG. 6
Protocol: (§4) Example 1 (WM-S1-030) was administered at each concentration (30 mpk, 50 mpk) and positive control 1 was administered at a dose of 50 mpk to a mouse model transplanted with NCI-H460, which is a non-small cell lung cancer cell line of a mutation RONΔ165 type, and then the tumor was extracted, and the expression changes of the proteins were analyzed by immunochemical staining.
(§5) Specifically, paraffin slides were prepared using tissues isolated from the sacrificed mice. The tissue sections were deparaffinized and rehydrated, immersed in the target recovery buffer 1×(ScyTek Laboratories, Cat #CBB999) and heated for 15 minutes to perform an antigen recovery process. After the reaction, the tissue sections were washed in Tris buffered saline-0.05% Tween 20 (TBS-T)(T&I, BTT-9310) for 5 minutes, and then the reaction was performed with a non-specific antibody response blocking reagent (vector, SP-5035) for 1 hour.
(§6) The tissue sections were cultured at 4° C. overnight with mRON (Abcam, ab52927, 1:50), pTyr-mRON (Mybioscience, MBS462024, 1:100), cleaved caspase 3 (Asp175)(R&D Systems, MAB835, 1:50), cyclin D1 (cyclin D1 (SP4), #Z2027RS, 1:100) and then washed with TBS-T for 5 minutes, and then endogenous peroxidase activity was blocked using a peroxidase blocking reagent (Cellmarque, 925B-05). Thereafter, the tissue sections were washed with TBS-T for 5 minutes and then incubated with a rabbit secondary antibody (vector, PK-6101) at room temperature for 1 hour. The tissue sections were washed with TBS-T for 5 minutes and then colored with diaminobenzidine (cat #SK-4100). In order to stain the nuclei of the tissues, they were stained with hematoxylin (ScyTek Laboratories, HMM999) for 1 minute, dehydrated, and then encapsulated.

[8] = system: A549 non-small cell lung cancer cell line of a mutation RONΔ155 type; experiment: MTS assay, cell growth inhibitory ability, A549; assay type: cell-based; details: Homo sapiens; A549, RON mutation Δ155, 72 hours
Protocol: as §1, §2

[9] = system: pTyr-mRON, cleaved caspase 3, cyclin D1 in NCI-H358 (mRONΔ155) tumor; experiment: Protein expression change by immunochemical staining of tumor tissue, NCI-H358 transplanted animal model; assay type: in vivo, mouse; details: 3 mpk, 10 mpk, 30 mpk, FIG. 4
Protocol: as §4, with “(3” for “(30”, “10 mpk, 30” for “50”, “mpk)” for “mpk) and positive control 1 was administered at a dose of 50 mpk”, “NCI-H358,” for “NCI-H460,”, “RONΔ155” for “RONΔ165”
as §5
as §6, with “MAB835, 1:50), and cyclin D1” for “MAB835, 1:50), cyclin D1”

[10] = system: NCI-H358 non-small cell lung cancer cell line of a mutation RONΔ155 type; experiment: Cell killing efficacy, trypan blue exclusion assay, NCI-H358; assay type: cell-based; details: NCI-H358, 1 μM, 48 hours, FIG. 1
Protocol: (§7) A549 and NCI-H358, which are non-small cell lung cancer cell lines of a mutation RONΔ155 type, were dispensed, and 24 hours later, treated with 1 μM of the compounds of Examples 1 (WM-S1-030) to 5, positive control 1 (BMS-777607) and positive control 2 (AMG-510), respectively, while replacing the medium. After 48 hours, the cells and the cell fluid were harvested (1500 rpm, 4 min), and live cells and dead cells were quantified through trypan blue (15250-061, Gibco) exclusion assay. Statistical analysis was performed using T-test in Excel.

[11] = system: A549 non-small cell lung cancer cell line of a mutation RONΔ155 type; experiment: Cell killing efficacy, trypan blue exclusion assay, A549; assay type: cell-based; details: A549, 1 μM, 48 hours, FIG. 1
Protocol: as §7

| SMILES | pIC50 [1] | pIC50 [2] | pIC50 [4] | pIC50 [8] | Tumor growth inhibition rate (TGI, %) [3] [%] | Tumor growth inhibition rate (TGI, %) [5] [%] | Tumor growth inhibition rate (TGI, %) ([6]; 3 mg/kg) [%] | Tumor growth inhibition rate (TGI, %) ([6]; 10 mg/kg) [%] | Tumor growth inhibition rate (TGI, %) ([6]; 30 mg/kg) [%] | expression of cleaved caspase 3 [7] | expression of cyclin D1, a PD marker [7] | expression of pTyr-mRON [7] | expression of cleaved caspase 3 [9] | expression of cyclin D1, a PD marker [9] | expression of pTyr-mRON [9] | Cell killing efficacy (cell death) [10] | Cell killing efficacy (cell death) [11] |
| --- | --- | --- | --- | --- | --- | --- | --- | --- | --- | --- | --- | --- | --- | --- | --- | --- | --- |
| COc1cc2c(Oc3ccc(NC(=O)c4c5c(cn(-c6ccc(F)cc6)c4=O)CCO5)cc3F)ccnc2cc1OCCCN1CC(C#N)C1 [Example 5, N-[4-({7-[3-(3-cyanoazetidin-1-yl)propoxy]-6-methoxyquinolin-4-yl}oxy)-3-fluorophenyl]-5-(4-fluorophenyl)-6-oxo-2,3,5,6-tetrahydrofuro[3,2-c]pyridine-7-carboxamide] | 5.88 | 6.51 | 6.57 | 6.72 |  |  |  |  |  |  |  |  |  |  |  |  |  |
| CCOc1ccn(-c2ccc(F)cc2)c(=O)c1C(=O)Nc1ccc(Oc2ccnc(N)c2Cl)c(F)c1 [Positive control 1, N-{4-[(2-amino-3-chloro-4-pyridinyl)oxy]-3-fluorophenyl}-4-ethoxy-1-(4-fluorophenyl)-2-oxo-1,2-dihydro-3-pyridinecarboxamide, reference compound] | < 5.00 | < 5.00 | < 5.00 | < 5.00 | 26.1 ± 1.7 |  |  |  |  |  |  |  |  |  |  | response to the drug was low | response to the drug was low |
| C=CC(=O)N1CCN(c2nc(=O)n(-c3c(C)ccnc3C(C)C)c3nc(-c4c(O)cccc4F)c(F)cc23)[C@@H](C)C1 [Positive control 2, reference compound] | < 5.00 | < 5.00 | 7.30 | < 5.00 |  |  |  |  |  |  |  |  |  |  |  | response to the drug was low | response to the drug was low |

Further lines, with some results ahead:

| pIC50 [1] | pIC50 [2] | pIC50 [4] | pIC50 [8] | SMILES | Tumor growth inhibition rate (TGI, %) [3] [%] | Tumor growth inhibition rate (TGI, %) [5] [%] | Tumor growth inhibition rate (TGI, %) ([6]; 3 mg/kg) [%] | Tumor growth inhibition rate (TGI, %) ([6]; 10 mg/kg) [%] | Tumor growth inhibition rate (TGI, %) ([6]; 30 mg/kg) [%] | expression of cleaved caspase 3 [7] | expression of cyclin D1, a PD marker [7] | expression of pTyr-mRON [7] | expression of cleaved caspase 3 [9] | expression of cyclin D1, a PD marker [9] | expression of pTyr-mRON [9] | Cell killing efficacy (cell death) [10] | Cell killing efficacy (cell death) [11] |
| --- | --- | --- | --- | --- | --- | --- | --- | --- | --- | --- | --- | --- | --- | --- | --- | --- | --- |
| 6.14 | 5.79 | 5.90 | 5.69 | CCOc1ccn(-c2ccc(F)cc2)c(=O)c1C(=O)Nc1ccc(Oc2ccnc3cc(-c4ccc(CN5CCOCC5)cn4)sc23)c(F)c1.Cl [Example 1, 4-ethoxy-N-[3-fluoro-4-({2-[5-(morpholinomethyl)pyridin-2-yl]thieno[3,2-b]pyridin-7-yl}oxy)phenyl]-1-(4-fluorophenyl)-2-oxo-1,2-dihydropyridine-3-carboxamide hydrochloride] | 69.7 ± 5.4 | 58.9 ± 3.8 | 12.3 ± 13.8 | 64.5 ± 6.2 | 91.0 ± 2.3 | induced | decreased | decreased | induced | decreased | decreased |  |  |
| 5.14 | < 5.00 | 5.04 | 5.71 | CCOc1ccn(-c2ccccc2)c(=O)c1C(=O)Nc1ccc(Oc2ccnc3cc(-c4ccc(CNCCOC)cn4)sc23)c(F)c1 [Example 2, 4-ethoxy-N-(3-fluoro-4-{[2-(5-{[(2-methoxyethyl)amino]methyl}pyridin-2-yl)thieno[3,2-b]pyridin-7-yl]oxy}phenyl)-2-oxo-1-phenyl-1,2-dihydropyridine-3-carboxamide hydrochloride] |  |  |  |  |  |  |  |  |  |  |  |  |  |
| 5.81 | 5.67 | 5.58 | 6.21 | CCOc1ccn(-c2ccccc2)c(=O)c1C(=O)Nc1ccc(Oc2ccnc3cc(-c4ccc(CN5CCN(C)CC5)cn4)sc23)c(F)c1 [Example 3, hydrochloride] |  |  |  |  |  |  |  |  |  |  |  |  |  |
| 6.07 | 6.22 | 6.05 | 6.43 | COc1cc2c(Oc3ccc(NC(=O)c4c5c(cn(-c6ccc(F)cc6)c4=O)CCO5)cc3F)ccnc2cc1OCCN1CCOCC1 [Example 4, N-(3-fluoro-4-{[6-methoxy-7-(2-morpholinoethoxy)quinolin-4-yl]oxy}phenyl)-5-(4-fluorophenyl)-6-oxo-2,3,5,6-tetrahydrofuro[3,2-c]pyridine-7-carboxamide] |  |  |  |  |  |  |  |  |  |  |  |  |  |
